In PMC6523382 (Pharmaceutics, 2019) one finds IC50 data, which are given here for one molecule.

The target in series [1] is T1, MATE2-K (Homo sapiens, UniProt Q86VL8). Particulars: read-out: IC50 for MATE2-K reported in the literature; cited from earlier work.
Series [2] deals with T2, OCT1 (Homo sapiens, UniProt O15245).
T2 sequence (O15245 1-554): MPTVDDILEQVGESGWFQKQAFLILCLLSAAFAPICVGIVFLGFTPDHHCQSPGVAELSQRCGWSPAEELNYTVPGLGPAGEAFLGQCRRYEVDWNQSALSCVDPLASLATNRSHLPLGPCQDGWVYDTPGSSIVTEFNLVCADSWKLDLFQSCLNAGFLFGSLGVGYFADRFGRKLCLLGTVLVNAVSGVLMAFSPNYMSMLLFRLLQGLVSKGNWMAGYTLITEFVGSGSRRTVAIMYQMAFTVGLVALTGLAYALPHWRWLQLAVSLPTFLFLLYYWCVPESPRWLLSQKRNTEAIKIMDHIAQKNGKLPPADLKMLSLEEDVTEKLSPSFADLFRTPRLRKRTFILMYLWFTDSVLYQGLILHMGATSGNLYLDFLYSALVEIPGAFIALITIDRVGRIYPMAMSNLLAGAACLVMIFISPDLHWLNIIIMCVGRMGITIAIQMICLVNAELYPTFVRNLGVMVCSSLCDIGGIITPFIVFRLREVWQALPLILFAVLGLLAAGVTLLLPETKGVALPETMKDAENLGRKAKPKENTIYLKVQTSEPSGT
Particulars: read-out: IC50 for OCT1 reported in the literature; cited from earlier work.

For series [3], the target named is T2, OCT1. The experiment in a line: Inhibition of OCT1-mediated [14C]metformin uptake in HEK293-OCT1 cells. In kind it is cell-based. More on the design: host or cells: HEK293. On the procedure: (§1) HEK293 cells overexpressing OCT1, OCT2, MATE1, and MATE2-K (HEK293-OCT1, -OCT2, MATE1, and MATE2-K, respectively; Corning, Tewksbury, MA, USA) were used and characterized as previously described. […] In HEK293-MATE1 or -MATE2-K cells, 2 mM sodium butyrate was also supplemented in the culture medium. […] Sigma, St. Louis, MO, USA) and incubated for 30 min in HBSS. In HEK293-MATE1, or -MATE2-K cells, 40 mM ammonium chloride was also added for the outwardly directed proton gradient. […] After the 5 min incubation, cells were washed three times with 200 µL of ice-cold HBSS immediately after placing the plates on ice. Then, the cells were lysed with 10% sodium dodecyl sulfate (SDS) and the cell lysates were mixed with Optiphase cocktail solution. Thereafter, the radioactivity of the cell lysates was measured using a liquid scintillation counter (Microbeta 2, Perkin Elmer Inc., Boston, MA, USA).

Series [4] addresses T1, MATE2-K. The experiment in a line: Inhibition of MATE2-K-mediated [14C]metformin uptake in HEK293-MATE2-K cells. On the set-up: host or cells: HEK293. In kind it is cell-based. Particulars: read-out: IC50 on MATE2-K-mediated metformin uptake, 10 µM [14C]metformin, 5 min. On the procedure: as §1
Series [5] concerns the target T3, OCT2 (Homo sapiens, UniProt O15244).
T3 sequence (O15244 1-555): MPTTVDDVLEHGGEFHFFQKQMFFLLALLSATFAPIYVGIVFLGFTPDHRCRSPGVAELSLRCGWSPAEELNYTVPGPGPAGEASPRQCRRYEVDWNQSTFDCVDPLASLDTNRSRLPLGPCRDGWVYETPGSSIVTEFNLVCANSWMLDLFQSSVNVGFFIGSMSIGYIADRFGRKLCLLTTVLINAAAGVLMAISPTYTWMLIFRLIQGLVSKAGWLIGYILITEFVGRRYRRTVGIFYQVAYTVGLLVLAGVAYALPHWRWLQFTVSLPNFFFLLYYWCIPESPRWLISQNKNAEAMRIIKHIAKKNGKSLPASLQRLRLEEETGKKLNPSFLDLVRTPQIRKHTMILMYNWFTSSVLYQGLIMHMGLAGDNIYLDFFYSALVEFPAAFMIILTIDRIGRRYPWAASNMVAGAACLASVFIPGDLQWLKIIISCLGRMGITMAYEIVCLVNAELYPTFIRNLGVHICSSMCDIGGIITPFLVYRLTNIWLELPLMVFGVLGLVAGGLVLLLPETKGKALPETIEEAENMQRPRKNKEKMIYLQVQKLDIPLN
Put plainly: Inhibition of OCT2-mediated [14C]metformin uptake in HEK293-OCT2 cells. In kind it is cell-based. More on the design: host or cells: HEK293. The protocol:
as §1

For another series, the target named is T4, MATE1 (Homo sapiens, UniProt Q96FL8).
T4 sequence (Q96FL8 1-570): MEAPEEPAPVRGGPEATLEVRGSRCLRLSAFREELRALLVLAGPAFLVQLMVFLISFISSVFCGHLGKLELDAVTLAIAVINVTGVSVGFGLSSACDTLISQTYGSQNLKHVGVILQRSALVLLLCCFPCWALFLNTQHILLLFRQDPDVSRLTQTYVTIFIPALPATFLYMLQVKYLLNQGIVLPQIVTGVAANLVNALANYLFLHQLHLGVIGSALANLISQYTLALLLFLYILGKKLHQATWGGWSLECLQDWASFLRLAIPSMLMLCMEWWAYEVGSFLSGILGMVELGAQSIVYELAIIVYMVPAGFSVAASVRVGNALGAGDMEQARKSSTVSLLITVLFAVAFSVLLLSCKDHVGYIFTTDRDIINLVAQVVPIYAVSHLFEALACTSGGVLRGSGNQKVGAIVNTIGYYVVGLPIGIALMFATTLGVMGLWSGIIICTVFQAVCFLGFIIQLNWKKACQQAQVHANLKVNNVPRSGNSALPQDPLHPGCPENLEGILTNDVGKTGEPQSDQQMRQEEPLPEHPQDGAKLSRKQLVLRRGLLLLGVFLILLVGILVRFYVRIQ
Particulars: read-out: IC50 for MATE1 reported in the literature; cited from earlier work.

Series [6] has as its target T3, OCT2. Particulars: read-out: IC50 for OCT2 reported in the literature; cited from earlier work.

The structures appear in SMILES notation. Like-named read-outs stand apart in the source and are kept apart here.

T1 sequence (Q86VL8 1-566 isoform Q86VL8-3): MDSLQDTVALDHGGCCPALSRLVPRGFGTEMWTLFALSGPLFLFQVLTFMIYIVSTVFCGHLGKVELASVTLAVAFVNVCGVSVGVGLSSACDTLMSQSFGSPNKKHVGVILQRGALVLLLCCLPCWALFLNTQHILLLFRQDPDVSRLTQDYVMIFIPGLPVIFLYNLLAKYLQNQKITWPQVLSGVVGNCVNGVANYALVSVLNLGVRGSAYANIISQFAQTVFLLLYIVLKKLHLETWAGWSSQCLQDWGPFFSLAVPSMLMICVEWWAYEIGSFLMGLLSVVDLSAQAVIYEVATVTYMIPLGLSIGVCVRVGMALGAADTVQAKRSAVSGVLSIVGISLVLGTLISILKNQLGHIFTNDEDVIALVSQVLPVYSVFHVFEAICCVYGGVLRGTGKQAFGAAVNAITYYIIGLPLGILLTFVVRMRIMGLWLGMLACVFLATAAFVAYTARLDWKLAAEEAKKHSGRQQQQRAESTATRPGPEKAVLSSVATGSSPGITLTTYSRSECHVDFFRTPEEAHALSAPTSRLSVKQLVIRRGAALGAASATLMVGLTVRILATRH

By IC50 is commonly meant the midpoint of a concentration-inhibition curve. Take `CN/C(=N/CCSCc1nc[nH]c1C)NC#N` [cimetidine]: the IC50 on MATE2-K [1] was 4.8 µM; at OCT1 [2], 57 µM; at OCT1 [3], 61.8 µM; on MATE2-K [4], 5.03 µM; on OCT2 [5], 197 µM; at MATE1 it was 700 nM. The IC50 at OCT2 [6] was 110 µM.
